US8318725B2, “Aryl indolyl sulfonamide compounds and their use as 5-HT6 ligands” (Suven Life Sciences Limited, priority 2008, dated 2012)

Tests used:
Human 5-HT6 receptor = target: T1, Human 5-HT6 receptor (Homo sapiens, UniProt P50406); experiment: Binding assay for human 5-HT6 receptor ([3H] LSD radioligand); conditions: [3H] LSD 1.5 nM, human recombinant receptor in HEK293 cells; for inhibition at 0.1 µM: 100 nM test compound, read-out: % Inhibition of specific binding at 100 nM
T1 construct: expressed in transfected cells; host or cells: HEK293
Protocol: Binding Assay for Human 5-HT6 Receptor
Compounds can be tested according to the following the procedures. Materials and Methods:
Receptor source: Human recombinant expressed in HEK293 cells
Radioligand: [^3H] LSD (60-80 Ci/mmol)
Final ligand concentration—[1.5 nM]
Non-specific determinant: Methiothepin mesylate—[0.1 μM]
Reference compound: Methiothepin mesylate
Positive control: Methiothepin mesylate
Reactions were carried out in […] TRIS-HCl (pH 7.4) containing 10 μM MgCl2, 0.5 mM EDTA for 60 minutes at 37° C. The reaction was terminated by rapid vacuum filtration onto glass fiber filters. Radioactivity trapped onto the filters was determined and compared to control values in order to ascertain any interactions of test compound(s) with the cloned serotonin 5-HT6binding site.
Literature Reference: Monsma F. J. Jr., et al., Molecular Cloning and Expression of Novel Serotonin Receptor with High Affinity for Tricyclic Psychotropic Drugs. Mol. Pharmacol. (43): 320-327 (1993).

T1 sequence (P50406 whole entry): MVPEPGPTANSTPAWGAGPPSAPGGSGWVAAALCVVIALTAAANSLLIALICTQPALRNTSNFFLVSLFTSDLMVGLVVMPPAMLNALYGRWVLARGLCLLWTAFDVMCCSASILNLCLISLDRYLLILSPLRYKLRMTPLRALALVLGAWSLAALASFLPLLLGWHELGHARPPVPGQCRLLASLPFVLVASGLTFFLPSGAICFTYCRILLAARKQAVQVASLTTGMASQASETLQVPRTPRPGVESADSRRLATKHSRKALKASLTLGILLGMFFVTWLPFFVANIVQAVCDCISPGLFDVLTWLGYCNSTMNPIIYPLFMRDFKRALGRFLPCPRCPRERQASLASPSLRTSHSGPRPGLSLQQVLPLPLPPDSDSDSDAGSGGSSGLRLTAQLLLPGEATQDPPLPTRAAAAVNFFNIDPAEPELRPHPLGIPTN

Row | melting point [°C] | inhibition at 0.1 µM (Human 5-HT6 receptor) [%] | Ki (Human 5-HT6 receptor) [nM] | Compound
1 | 208.6 to 212.8 | 71.8 | – | CCN1CCN(Cc2cc(S(=O)(=O)n3ccc4cc(Br)ccc43)ccc2Cl)CC1.Cl.Cl [Example 29, 1-[4-Chloro-3-(4-ethylpiperazin-1-ylmethyl)benzenesulfonyl]-5-bromo-1H-indole dihydrochloride]
2 | 217.5 to 220.8 | 68 | – | CCN1CCN(Cc2cc(S(=O)(=O)n3cc(C)c4cc(OC)ccc43)ccc2Cl)CC1.Cl.Cl [Example 30, 1-[4-Chloro-3-(4-ethylpiperazin-1-ylmethyl)benzenesulfonyl]-5-methoxy-3-methyl-1H-indole dihydrochloride]
3 | 205.1 to 207.1 | 55.9 | – | CCN1CCN(Cc2cc(S(=O)(=O)n3ccc4cc(Br)ccc43)ccc2Br)CC1.Cl.Cl [Example 37, 1-[4-Bromo-3-(4-ethylpiperazin-1-ylmethyl)benzenesulfonyl]-5-bromo-1H-indole dihydrochloride]
4 | 210.5 to 213 | – | 9.11 | Cc1cn(S(=O)(=O)c2ccc(Br)c(CN3CCN(C)CC3)c2)c2ccccc12.Cl.Cl [Example 38, 1-[4-Bromo-3-(4-methylpiperazin-1-ylmethyl)benzenesulfonyl]-3-methyl-1H-indole dihydrochloride]
5 | 204.1 to 206.5 | 91.5 | – | CCN1CCN(Cc2cc(S(=O)(=O)n3cc(C)c4ccccc43)ccc2Br)CC1.Cl.Cl [Example 39, 1-[4-Bromo-3-(4-ethylpiperazin-1-ylmethyl)benzenesulfonyl]-3-methyl-1H-indole dihydrochloride]
6 | 220.3 to 223.4 | 86.2 | – | Cc1ccc(S(=O)(=O)n2ccc3cc(F)ccc32)cc1CN1CCN(C)CC1.Cl.Cl [Example 43, 1-[4-Methyl-3-(4-methylpiperazin-1-ylmethyl)benzenesulfonyl]-5-fluoro-1H-indole dihydrochloride]
7 | 203.4 to 206.2 | 78.5 | – | CCN1CCN(Cc2cc(S(=O)(=O)n3ccc4cc(F)ccc43)ccc2C)CC1.Cl.Cl [Example 44, 1-[4-Methyl-3-(4-ethylpiperazin-1-ylmethyl)benzenesulfonyl]-5-fluoro-1H-indole dihydrochloride]
